Test [1] deals with T1, wheat cytosolic ACCase expressed in yeast.
T1 construct: Full length cDNA encoding wheat cytosolic ACCase was assembled; made in house; host or cells: S. cerevisiae haploid gene-replacement strain MJ 1.12 (crude extract, Sephadex G50)
The test is described as follows: In vitro inhibition of wheat cytosolic ACCase expressed in yeast (gel-filtered crude extract). Type of test: biochemical. The method, then:
(§1) Sethoxydim and Cethoxydim (CGA215684) were obtained from CIBA-GEIGY and haloxyfop was obtained from DowElanco. To measure inhibition in vivo, galactose-dependent strains were grown in YPR containing 0.01% galactose (to A600 of ~0.5) and then diluted (~100 fold) to the same initial density with fresh YPR medium containing 0.01% galactose and varying amounts of herbicide added as 100-fold concentrated stock solutions in DMSO. ACCase activity in vitro was measured using protein extracts prepared as described (Mitchell et al., 1993) from 25-50 ml cultures of yeast strains MJ 1.12 and MG 9.11 grown for 24-40 h. Cells were suspended in one volume of extraction buffer (0.3 M sorbitol, 0.1 M NaCl, 5 mM MgCl2, 10 mM Tris pH 7.4, supplemented with protease inhibitors: aprotinin (6.6 μ/mL), leupeptin (1.5 μ/mL), pepstatin A (3 μ/mL) and chymostatin (1 μg/mL), and vortexed with 2 volumes of glass beads for 5 min at 4° C. 1/200 volume of 100 mM ethanol solution of phenylmethylsulfonyl fluoride was added twice during extraction. The cell debris were removed by centrifugation and the supenatant (~0.5 ml) was loaded immediately on a 20 ml Sephadex G50 column equilibrated with 100 mM KCl, 20 mM Tris/HCl (pH 7.5), 20% glycerol, 7 mM β-mercaptoethanol. […] ACCase activity was measured as described before (Gornicki and Haselkorn, 1993) using aliquots of the column fractions. […]

In test [2] the target is T2, wheat plastid ACCase (wheat germ extract) (Triticum aestivum, UniProt O48959).
T2 construct: mixed homoeologues, some cytosolic ACCase present
T2 sequence (O48959 1-2311): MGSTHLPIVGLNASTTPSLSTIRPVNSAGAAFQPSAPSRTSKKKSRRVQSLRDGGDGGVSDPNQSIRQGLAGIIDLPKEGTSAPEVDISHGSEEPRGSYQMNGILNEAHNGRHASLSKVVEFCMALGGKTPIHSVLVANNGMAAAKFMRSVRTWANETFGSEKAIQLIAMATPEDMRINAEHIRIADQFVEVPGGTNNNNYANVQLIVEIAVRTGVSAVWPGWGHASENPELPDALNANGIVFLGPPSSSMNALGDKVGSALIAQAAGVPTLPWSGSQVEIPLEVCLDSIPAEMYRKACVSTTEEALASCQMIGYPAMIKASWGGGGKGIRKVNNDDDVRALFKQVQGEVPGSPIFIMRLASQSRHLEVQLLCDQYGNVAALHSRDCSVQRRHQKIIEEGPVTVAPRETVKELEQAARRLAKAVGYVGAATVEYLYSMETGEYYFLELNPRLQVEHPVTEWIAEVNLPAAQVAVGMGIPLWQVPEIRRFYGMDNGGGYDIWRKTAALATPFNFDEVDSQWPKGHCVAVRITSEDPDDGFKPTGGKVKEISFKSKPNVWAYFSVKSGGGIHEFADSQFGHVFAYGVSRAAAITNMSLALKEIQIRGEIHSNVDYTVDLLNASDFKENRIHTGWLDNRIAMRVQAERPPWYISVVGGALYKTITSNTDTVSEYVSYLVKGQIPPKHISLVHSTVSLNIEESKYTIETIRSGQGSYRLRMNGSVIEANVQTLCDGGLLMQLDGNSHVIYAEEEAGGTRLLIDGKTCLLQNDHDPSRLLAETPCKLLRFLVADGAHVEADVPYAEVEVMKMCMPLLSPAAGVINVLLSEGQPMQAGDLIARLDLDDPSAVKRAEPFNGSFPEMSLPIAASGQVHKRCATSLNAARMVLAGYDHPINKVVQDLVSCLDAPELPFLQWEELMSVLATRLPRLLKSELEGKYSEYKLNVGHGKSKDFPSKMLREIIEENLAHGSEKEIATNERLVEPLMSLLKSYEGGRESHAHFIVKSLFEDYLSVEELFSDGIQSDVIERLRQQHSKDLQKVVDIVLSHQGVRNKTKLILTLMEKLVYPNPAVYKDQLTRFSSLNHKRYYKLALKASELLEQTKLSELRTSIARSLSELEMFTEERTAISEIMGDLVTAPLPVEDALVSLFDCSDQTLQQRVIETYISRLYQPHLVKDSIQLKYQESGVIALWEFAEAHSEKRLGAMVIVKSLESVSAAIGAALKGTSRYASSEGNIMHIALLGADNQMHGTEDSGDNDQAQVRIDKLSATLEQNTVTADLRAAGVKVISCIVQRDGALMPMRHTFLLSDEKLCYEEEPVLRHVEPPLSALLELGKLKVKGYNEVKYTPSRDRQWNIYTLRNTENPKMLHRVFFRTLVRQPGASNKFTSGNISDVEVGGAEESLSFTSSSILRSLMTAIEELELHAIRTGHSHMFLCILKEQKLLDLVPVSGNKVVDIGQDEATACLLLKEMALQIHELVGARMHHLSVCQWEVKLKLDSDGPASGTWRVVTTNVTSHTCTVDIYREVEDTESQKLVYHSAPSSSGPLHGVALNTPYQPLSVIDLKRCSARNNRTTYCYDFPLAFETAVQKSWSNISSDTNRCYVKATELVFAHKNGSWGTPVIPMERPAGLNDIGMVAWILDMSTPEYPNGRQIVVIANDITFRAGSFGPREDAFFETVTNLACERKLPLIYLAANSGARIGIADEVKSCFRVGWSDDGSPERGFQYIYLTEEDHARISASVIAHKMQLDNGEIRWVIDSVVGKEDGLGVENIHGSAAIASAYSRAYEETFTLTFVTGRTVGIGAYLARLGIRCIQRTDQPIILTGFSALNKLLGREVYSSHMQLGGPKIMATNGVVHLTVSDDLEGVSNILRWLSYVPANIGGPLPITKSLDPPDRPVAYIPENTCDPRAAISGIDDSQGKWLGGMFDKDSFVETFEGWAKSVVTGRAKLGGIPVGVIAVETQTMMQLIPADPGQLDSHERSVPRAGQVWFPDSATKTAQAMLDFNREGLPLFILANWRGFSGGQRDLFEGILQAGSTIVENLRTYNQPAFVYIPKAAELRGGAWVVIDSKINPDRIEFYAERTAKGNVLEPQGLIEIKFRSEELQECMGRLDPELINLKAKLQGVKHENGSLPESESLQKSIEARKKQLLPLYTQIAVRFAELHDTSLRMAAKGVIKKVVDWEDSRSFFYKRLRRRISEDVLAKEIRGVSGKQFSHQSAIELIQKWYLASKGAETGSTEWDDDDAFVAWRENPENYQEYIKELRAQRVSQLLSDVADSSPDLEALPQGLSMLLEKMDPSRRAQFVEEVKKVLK
In words: In vitro inhibition of ACCase in wheat germ extract. Type of test: biochemical. As to conditions: wheat plastid enzyme in wheat germ extract. The method, then:
as §1

The target of another test is T3, yeast ACCase (Saccharomyces cerevisiae, UniProt Q00955).
T3 construct: containing one copy of the yeast ACC1 gene (on the chromosome) and expressing ACCase under its own promoter; endogenous in cells; host or cells: S. cerevisiae haploid strain MJ 9.11 (W303D-derived), crude extract, Sephadex G50
In words: In vitro inhibition of yeast ACCase (gel-filtered crude extract). It counts as biochemical, S. cerevisiae. The protocol: as §1

In test [3] the test system is strain MJ 1.12 expressing wheat cytosolic ACCase. In words: In vivo growth inhibition of yeast gene-replacement strain expressing wheat cytosolic ACCase. As to conditions: for effect on growth of gene-replacement strain (in vivo): MJ 1.12, liquid culture, YPR medium with 0.01% galactose. It counts as cell-based, S. cerevisiae. The protocol: The yeast complex medium for vegetative growth contained 1% Bacto-yeast extract, 2% Bacto-peptone, 0.1% adenine sulfate and was supplemented with the following carbon sources: 2% Dextrose in YPD, 2% Raffinose in YPR, 2% galactose and 2% raffinose in YPRG. The yeast synthetic minimal medium (SD) contained 0.17% yeast nitrogen base, 0.5% ammonium sulfate, 2% dextrose, and was supplemented with various additives required for growth: adenine sulfate (10 mg/L), uracil (20 mg/L), histidine (20 mg/L), leucine (200 mg/L) and/or tryptophane (50 mg/L). The SRG medium is identical to SD, with dextrose replaced by 2% raffinose and 2% galactose. 2% bacto-agar was used in solid media. SPII (2% potassium acetate, supplemented with essential amino acids at 7.5 mg/L) and SPIII (0.1% bacto-yeast extract and 2% bacto-agar added to SPII) media for sporulation are described in (Klapholz and Esposito, 1982; Klapholz et al;. 1985). S. cerevisiae strain W303D-ACC1^ΔLEU2 was also obtained from Dr. S. D. Kohlwein. Yeast cells were transformed as described before (Chen et al., 1992) using Frozen-ELZ kit (Zymo Research, Orange Calif.) according to the manufacturer's protocol and transformants were selected using SD plates lacking a marker amino acid. Sporulation was induced in SPII or SPIII medium at 30° C. for 2-3 days. Dissection of asci was performed as described (Guthrie and Fink, 1991). YPD or YPRG plates were used for vegetative growth of ascospore clones following dissection. Galactose-dependent strains (MJ 6.8, 6.9, 1.12 and 1.13) were grown in YPRG medium and other strains in YPD medium, all at 30° C. To measure galactose induction, the strains were grown for ~24 h in YPR medium until all galactose was exhausted (growth of galactose-dependent strains ceased), and then diluted ~100 fold with YPR medium containing various amounts of galactose.
Sethoxydim and Cethoxydim (CGA215684) were obtained from CIBA-GEIGY and haloxyfop was obtained from DowElanco. To measure inhibition in vivo, galactose-dependent strains were grown in YPR containing 0.01% galactose (to A600 of ~0.5) and then diluted (~100 fold) to the same initial density with fresh YPR medium containing 0.01% galactose and varying amounts of herbicide added as 100-fold concentrated stock solutions in DMSO. ACCase activity in vitro was measured using protein extracts prepared as described (Mitchell et al., 1993) from 25-50 ml cultures of yeast strains MJ 1.12 and MG 9.11 grown for 24-40 h. Cells were suspended in one volume of extraction buffer (0.3 M sorbitol, 0.1 M NaCl, 5 mM MgCl2, 10 mM Tris pH 7.4, supplemented with protease inhibitors: aprotinin (6.6 μ/mL), leupeptin (1.5 μ/mL), pepstatin A (3 μ/mL) and chymostatin (1 μg/mL), and vortexed with 2 volumes of glass beads for 5 min at 4° C. 1/200 volume of 100 mM ethanol solution of phenylmethylsulfonyl fluoride was added twice during extraction. The cell debris were removed by centrifugation and the supenatant (~0.5 ml) was loaded immediately on a 20 ml Sephadex G50 column equilibrated with 100 mM KCl, 20 mM Tris/HCl (pH 7.5), 20% glycerol, 7 mM β-mercaptoethanol. Protein was eluted with the same buffer and stored at -70° C. ACCase activity was measured as described before (Gornicki and Haselkorn, 1993) using aliquots of the column fractions. Herbicides were added to the reaction mixtures (1/10 or 1/20 volume) as a solution in 0.25-0.75 M Tris-HCl, pH8.0 containing 25% DMSO. Wheat germ extract was purchased from Promega.

Test [4] relates to strain MJ 9.11 expressing yeast ACCase (ACC1). The test is described as follows: In vivo growth inhibition of yeast strain expressing yeast ACCase. Type of test: cell-based, S. cerevisiae. As to conditions: MJ 9.11, 800 μM inhibitor. The method, then:
The yeast complex medium for vegetative growth contained 1% Bacto-yeast extract, 2% Bacto-peptone, 0.1% adenine sulfate and was supplemented with the following carbon sources: 2% Dextrose in YPD, 2% Raffinose in YPR, 2% galactose and 2% raffinose in YPRG. The yeast synthetic minimal medium (SD) contained 0.17% yeast nitrogen base, 0.5% ammonium sulfate, 2% dextrose, and was supplemented with various additives required for growth: adenine sulfate (10 mg/L), uracil (20 mg/L), histidine (20 mg/L), leucine (200 mg/L) and/or tryptophane (50 mg/L). The SRG medium is identical to SD, with dextrose replaced by 2% raffinose and 2% galactose. 2% bacto-agar was used in solid media. SPII (2% potassium acetate, supplemented with essential amino acids at 7.5 mg/L) and SPIII (0.1% bacto-yeast extract and 2% bacto-agar added to SPII) media for sporulation are described in (Klapholz and Esposito, 1982; Klapholz et al;. 1985). […]
Sethoxydim and Cethoxydim (CGA215684) were obtained from CIBA-GEIGY and haloxyfop was obtained from DowElanco. […] ACCase activity in vitro was measured using protein extracts prepared as described (Mitchell et al., 1993) from 25-50 ml cultures of yeast strains MJ 1.12 and MG 9.11 grown for 24-40 h. […] ACCase activity was measured as described before (Gornicki and Haselkorn, 1993) using aliquots of the column fractions. […]

Test [5] concerns maize ACCase, first minor peak. As to conditions: 50 μM; first minor peak (Howard and Ridley, 1990); cited from earlier work.
In test [6] the test system is wheat seedling leaves (ACCase, fatty acid synthesis). In words: In vivo incorporation of 14C-acetate into fatty acids in cut wheat seedling leaves. Also noted: species or system wheat (Triticum aestivum cv. Era). As to conditions: Triticum aestivum; freshly cut wheat seedling leaves, 4-6 h; read-out: 50% inhibition of in vivo incorporation of 14C-acetate into fatty acids. The method, then: For the in vivo assay of ACCase activity, 2-week old seedlings of wheat (Triticum aestivum cv. Era) were cut about 1 cm below the first leaf and transferred to a 1.5 ml micro tube containing ^14 C-sodium acetate and haloxyfop (Tris salt) for 4-6 h. The leaves were then cut into small pieces and treated with 0.5 ml of 40% KOH for 1 h at 70° C., and then with 0.3 ml of H2 SO4 and 20 μl of 30% TCA on ice. Fatty acids were extracted with three 0.5 ml aliquots of petroleum ether. The organic phase was washed with 1 ml of water. Incorporation of ^14 C-acetate into fatty acids is expressed as the percentage of the total radioactivity taken up by the seedlings. present in the organic phase.

The target of test [7] is T2, wheat plastid ACCase (wheat germ extract). As to conditions: shown previously (Gornicki and Haselkorn, 1993); cited from earlier work.
Test [8] concerns the target T4, enzyme from pea chloroplasts (ACCase) (Pisum sativum, UniProt P18823+Q41008).
T4 construct: the enzyme from pea chloroplasts is relatively resistant; from tissue; host or cells: pea chloroplasts
T4 sequence (P18823 1-590): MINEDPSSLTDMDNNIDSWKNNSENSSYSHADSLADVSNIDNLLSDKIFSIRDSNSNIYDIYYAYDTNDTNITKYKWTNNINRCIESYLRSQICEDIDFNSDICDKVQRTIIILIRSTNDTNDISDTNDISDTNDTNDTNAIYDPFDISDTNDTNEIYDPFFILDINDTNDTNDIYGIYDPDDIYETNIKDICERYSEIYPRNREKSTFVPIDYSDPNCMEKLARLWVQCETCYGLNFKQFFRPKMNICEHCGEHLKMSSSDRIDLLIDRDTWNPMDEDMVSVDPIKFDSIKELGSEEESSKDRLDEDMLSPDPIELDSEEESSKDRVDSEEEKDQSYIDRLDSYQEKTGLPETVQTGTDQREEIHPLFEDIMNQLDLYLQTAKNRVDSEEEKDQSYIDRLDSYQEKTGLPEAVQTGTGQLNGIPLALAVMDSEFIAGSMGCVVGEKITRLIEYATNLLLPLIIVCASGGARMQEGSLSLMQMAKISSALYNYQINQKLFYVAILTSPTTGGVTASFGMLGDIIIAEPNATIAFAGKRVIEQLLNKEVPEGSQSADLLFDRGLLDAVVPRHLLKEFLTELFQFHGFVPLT
T4 sequence (Q41008 51-875): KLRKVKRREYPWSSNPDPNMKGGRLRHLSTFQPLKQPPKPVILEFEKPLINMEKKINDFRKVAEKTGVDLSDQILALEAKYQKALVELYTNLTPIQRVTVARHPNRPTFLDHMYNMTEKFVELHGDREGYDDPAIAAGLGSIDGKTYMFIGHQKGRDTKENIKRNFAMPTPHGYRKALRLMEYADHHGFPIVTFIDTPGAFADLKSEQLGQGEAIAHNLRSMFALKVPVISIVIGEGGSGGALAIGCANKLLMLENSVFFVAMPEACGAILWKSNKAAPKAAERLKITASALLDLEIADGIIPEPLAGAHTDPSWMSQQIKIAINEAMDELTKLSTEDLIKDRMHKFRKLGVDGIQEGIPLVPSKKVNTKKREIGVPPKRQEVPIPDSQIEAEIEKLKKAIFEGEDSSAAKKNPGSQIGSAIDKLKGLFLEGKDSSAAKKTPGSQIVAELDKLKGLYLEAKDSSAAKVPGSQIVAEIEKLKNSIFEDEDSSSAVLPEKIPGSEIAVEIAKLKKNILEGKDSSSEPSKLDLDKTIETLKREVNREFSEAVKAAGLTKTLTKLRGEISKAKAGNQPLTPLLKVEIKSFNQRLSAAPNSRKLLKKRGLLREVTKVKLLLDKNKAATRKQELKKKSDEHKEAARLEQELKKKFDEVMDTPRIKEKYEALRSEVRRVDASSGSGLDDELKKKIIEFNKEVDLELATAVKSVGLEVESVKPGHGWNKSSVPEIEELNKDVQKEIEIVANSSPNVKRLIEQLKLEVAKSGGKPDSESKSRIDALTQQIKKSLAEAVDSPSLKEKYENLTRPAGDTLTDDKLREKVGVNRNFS
In words: In vitro ACCase activity assay, pea chloroplast enzyme. It counts as biochemical. As to conditions: read-out: 50% inhibition of ACCase activity.

The values below come from US6306636A, “Nucleic acid segments encoding wheat acetyl-CoA carboxylase” (Arch Development Corporation, priority 1997, dated 2001).

The structures appear in SMILES notation.

T1 sequence (Q38970 whole entry): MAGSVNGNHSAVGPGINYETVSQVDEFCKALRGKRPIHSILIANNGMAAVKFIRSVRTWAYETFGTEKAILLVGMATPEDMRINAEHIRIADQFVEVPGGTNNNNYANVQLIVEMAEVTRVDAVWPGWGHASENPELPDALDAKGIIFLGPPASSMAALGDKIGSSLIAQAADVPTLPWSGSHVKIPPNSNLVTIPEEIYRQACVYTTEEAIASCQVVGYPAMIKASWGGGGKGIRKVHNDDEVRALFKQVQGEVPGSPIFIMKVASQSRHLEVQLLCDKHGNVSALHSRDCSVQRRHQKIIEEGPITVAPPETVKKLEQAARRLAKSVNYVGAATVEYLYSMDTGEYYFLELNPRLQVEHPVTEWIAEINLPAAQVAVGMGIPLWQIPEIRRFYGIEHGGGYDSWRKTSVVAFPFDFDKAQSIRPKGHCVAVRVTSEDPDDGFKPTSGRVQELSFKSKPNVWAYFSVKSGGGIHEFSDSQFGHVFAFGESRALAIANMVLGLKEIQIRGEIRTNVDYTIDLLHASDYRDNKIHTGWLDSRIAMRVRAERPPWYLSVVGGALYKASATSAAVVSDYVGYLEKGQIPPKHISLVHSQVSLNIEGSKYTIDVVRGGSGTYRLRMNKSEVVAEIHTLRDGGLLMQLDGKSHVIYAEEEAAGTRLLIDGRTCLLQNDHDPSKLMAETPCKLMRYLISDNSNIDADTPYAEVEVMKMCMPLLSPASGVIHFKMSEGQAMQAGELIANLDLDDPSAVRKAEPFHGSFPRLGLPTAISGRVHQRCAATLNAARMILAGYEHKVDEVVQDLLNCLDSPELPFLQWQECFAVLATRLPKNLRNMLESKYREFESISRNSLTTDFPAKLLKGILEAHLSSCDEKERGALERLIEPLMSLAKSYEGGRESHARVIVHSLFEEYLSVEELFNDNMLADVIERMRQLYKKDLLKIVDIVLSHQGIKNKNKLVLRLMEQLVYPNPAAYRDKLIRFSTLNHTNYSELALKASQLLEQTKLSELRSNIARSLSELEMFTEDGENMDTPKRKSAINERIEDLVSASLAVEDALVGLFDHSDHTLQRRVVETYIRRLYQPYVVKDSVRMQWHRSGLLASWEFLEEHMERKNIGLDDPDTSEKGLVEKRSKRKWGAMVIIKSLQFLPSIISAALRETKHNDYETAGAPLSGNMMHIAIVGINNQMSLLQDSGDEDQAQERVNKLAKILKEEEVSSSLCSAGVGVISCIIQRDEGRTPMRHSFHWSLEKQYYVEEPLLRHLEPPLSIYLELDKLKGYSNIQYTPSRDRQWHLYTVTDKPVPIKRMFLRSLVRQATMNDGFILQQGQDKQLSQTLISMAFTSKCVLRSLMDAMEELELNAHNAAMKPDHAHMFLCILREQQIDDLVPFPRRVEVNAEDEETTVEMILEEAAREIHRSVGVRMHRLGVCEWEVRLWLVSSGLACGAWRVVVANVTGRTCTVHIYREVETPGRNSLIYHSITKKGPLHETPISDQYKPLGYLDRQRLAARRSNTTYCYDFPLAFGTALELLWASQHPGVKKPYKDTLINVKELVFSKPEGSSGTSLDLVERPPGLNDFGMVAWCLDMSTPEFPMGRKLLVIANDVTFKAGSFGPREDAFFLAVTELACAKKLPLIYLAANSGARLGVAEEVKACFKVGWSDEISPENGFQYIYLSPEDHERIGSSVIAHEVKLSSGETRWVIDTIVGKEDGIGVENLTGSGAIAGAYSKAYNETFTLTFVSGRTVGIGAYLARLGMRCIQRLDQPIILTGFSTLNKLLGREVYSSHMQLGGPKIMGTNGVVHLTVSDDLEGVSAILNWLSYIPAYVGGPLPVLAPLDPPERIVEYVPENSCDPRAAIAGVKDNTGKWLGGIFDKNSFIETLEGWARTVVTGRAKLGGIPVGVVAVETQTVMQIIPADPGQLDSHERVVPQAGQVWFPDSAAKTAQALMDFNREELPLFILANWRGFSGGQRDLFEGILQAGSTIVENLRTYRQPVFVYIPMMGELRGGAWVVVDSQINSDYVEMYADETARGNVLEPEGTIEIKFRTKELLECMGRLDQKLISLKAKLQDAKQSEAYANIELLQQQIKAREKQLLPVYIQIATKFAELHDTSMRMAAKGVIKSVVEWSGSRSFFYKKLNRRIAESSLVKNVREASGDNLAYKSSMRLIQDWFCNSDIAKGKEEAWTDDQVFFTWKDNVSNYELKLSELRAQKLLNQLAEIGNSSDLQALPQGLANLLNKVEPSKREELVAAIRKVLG

Consider `CCC/C(=N\OCC)C1=C(O)CC(CC(C)SCC)CC1=O` (stereo not shown) [Sethoxydim], for which the “in vitro inhibition of ACCase activity” value is “does not inhibit” in test [1], “weakest inhibitor” in test [2] and “does not inhibit” at yeast ACCase. Further, in test [3], the “effect on growth of gene-replacement strain (in vivo)” value (from here on “effect on growth”) is “no effect”.
In the case of `CCC(=NOCC=CCl)C1C(=O)CC(C2(SC)CC2)CC1=O` (stereo not shown) [cethoxydim, Cethoxydim], the “in vitro inhibition of ACCase activity” value in test [1] was “moderately inhibits”; in [2] it was “much stronger inhibitor”; at yeast ACCase, “although not completely resistant, is less sensitive”. Further, the “growth at 800 μM” value in test [4] is “unaffected”; in test [3] (MJ 1.12, 800 μM inhibitor), “does not grow at all”. For the same compound, the “effect on growth” value in test [3] was “completely inhibits growth”. In test [3] (Saccharomyces cerevisiae, MJ 1.12, YPR medium with 0.01% galactose, A600 24 hrs after inoculation, read-out: 50% inhibition of growth), the IC50 is ~20 µM.
`CC(Oc1ccc(Oc2ccc(C(F)(F)F)cn2)cc1)C(=O)O` (stereo not shown) [fiuazifop, fluazifop]: the “inhibition of ACCase activity” value in [5] is reported as “not inhibited”.
Turning to `CC(Oc1ccc(Oc2ncc(C(F)(F)F)cc2Cl)cc1)C(=O)O` (stereo not shown) [haloxyfop], the results for the IC50 in test [6] and in test [8] were < 1 µM and > 50 µM, respectively. In [7], the “sensitivity of ACCase activity to inhibitor” value is given as “highly sensitive”. Moreover, in test [3], the “effect on growth” value is on record as “no effect”.
